Laboratory results taken from US20250107523A1, “TRIGGERING DIATOM PROGRAMMED CELL DEATH BY STIMULATING INFOCHEMICAL SIGNALING SYSTEMS” (BATTELLE MEMORIAL INSTITUTE, priority 2023, published 2025).

Columns and labels:
model diatoms = details: cited from earlier work
[1] = test system: freshwater diatom Encyonema minutum var. pseudogracialis (Em); assay: Lethality experiments on diatom Em in 96-well plates, live/dead count by Neutral Red vital staining; assay type: cell-based; details: 10 μM TDD alone; ~24 hours, 20° C.; n=3
Protocol: Em was maintained and tested at BMI in a modified filter-sterilized CR1-S algal medium with no soil particles so as to improve visualization and counting speed and accuracy.
All experiments were conducted in untreated polystyrene 96-well plates. Total liquid volume added to each well was 200 μL for all assays. At the start of each experiment, a conical tube of diatom Em was split into two and given fresh media (1:1 algae:media), then examined under a microscope to confirm vitality.
Lethality experiments were conducted with 6 different commercial algicides (AlgaeFix™, DINO X, Aquathol® K, Cutrine® Plus, GreenClean® PRO, and Hydrothol® 191 Granular) and two infochemicals (trans,trans-2,4-decadienal [TDD] and cholesterol-3-sulfate [C3S]). Fresh 50 mM or 25 mM stock solutions of each infochemical were prepared in DMSO immediately prior to each experiment. […]
Following incubation, 1.5 μL of filtered Neutral Red (0.8 g in 25 mL DI) for every 100 μL of solution (3 μL for 200 μL) was added to each well. […] A different staff member counted cells in 5 μL from each well using a hemocytometer under a microscope; this second staff member was not told which treatments were in which wells, so as to maintain single-blind data collection. Total cells were counted, along with live/dead characterization via Neutral Red vital cell staining, and time of well count completion.

Row | Compound | Level leading to programmed-cell-death / cell death (model diatoms) | Single treatment: lethality above negative control [1]
1 | CC(C)CCC[C@@H](C)[C@H]1CC[C@H]2[C@@H]3CC=C4C[C@@H](OS(=O)(=O)O)CC[C@]4(C)[C@H]3CC[C@]12C [C3S, cholesterol-3-sulfate, reference compound] | micromolar levels | –
2 | CCCCC/C=C/C=C/C=O [TDD, trans,trans-2,4-decadienal] | micromolar levels | 6.7%
